Values quoted from earlier work as cited in patent US10481160B2, “Combined anticancer drug sensitivity-determining marker” (KEIO UNIVERSITY, priority 2012, dated 2019).

Test system: advanced/recurrent colorectal cancer

| Compound | anti-tumor effect on colorectal cancer |
| --- | --- |
| O=C1[O][Pt]2([NH][C@@H]3CCCC[C@H]3[NH]2)[O]C1=O [L-OHP, Oxaliplatin] | exhibits anti-tumor effect |
| [NH2][Pt]([NH2])([Cl])[Cl] [CDDP, cisplatin] | ineffective |
| N.N.O=C([O-])C1(C(=O)[O-])CCC1.[Pt+2] [CBDCA, carboplatin] | ineffective |
